These results are taken from patent US9751837B2, “Kinase inhibitors” (RESPIVERT LIMITED, priority 2014, dated 2017).

One series deals with p38 MAPKα (MAPK14) (Homo sapiens (Human), UniProt Q16539). Kind of series: p38 MAPKα enzyme inhibition (Method 2), Z-LYTE FRET. Type of series: biochemical. How it is done: (§1) The enzyme inhibitory activities of compounds disclosed herein are determined by FRET using synthetic peptides labelled with both donor and acceptor fluorophores (Z-LYTE, Invitrogen Ltd., Paisley, UK).
p38 MAPKα (MAPK14), sequence (Q16539 whole entry): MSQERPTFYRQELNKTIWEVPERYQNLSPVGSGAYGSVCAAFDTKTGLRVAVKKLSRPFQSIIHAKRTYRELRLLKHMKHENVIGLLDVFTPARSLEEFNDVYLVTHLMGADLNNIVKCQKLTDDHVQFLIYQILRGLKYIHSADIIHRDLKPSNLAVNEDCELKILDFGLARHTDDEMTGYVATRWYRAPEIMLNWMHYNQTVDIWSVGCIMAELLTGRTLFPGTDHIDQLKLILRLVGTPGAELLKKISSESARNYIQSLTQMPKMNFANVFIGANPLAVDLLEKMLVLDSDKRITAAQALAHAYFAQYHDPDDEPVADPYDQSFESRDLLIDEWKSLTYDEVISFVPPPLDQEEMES
The following two assay variants can be used for determination of p38 MAPKα inhibition.
The inhibitory activities of test compounds against the p38 MAPKα isoform (MAPK14: Invitrogen) are evaluated indirectly by determining the level of activation/phosphorylation of the down-stream molecule, MAPKAP-K2. The p38 MAPKα protein (80 ng/mL, 2.5 μL) is mixed with the test compound (2.5 μL of either 4 μg/mL, 0.4 μg/mL, 0.04 μg/mL or 0.004 μg/mL) for 2 hr at RT. […] The mixture is incubated for 1 hr at RT. Development reagent (protease, 5 μL) is added for 1 hr prior to detection in a fluorescence microplate reader (Varioskan® Flash, ThermoFisher Scientific). […]
(§2) In all cases, the site-specific protease cleaves non-phosphorylated peptide only and eliminates the FRET signal. Phosphorylation levels of each reaction are calculated using the ratio of coumarin emission (donor) over fluorescein emission (acceptor), for which high ratios indicate high phosphorylation and low ratios indicate low phosphorylation levels.

The target in another series is c-Src (Homo sapiens (Human), UniProt P12931). Kind of series: c-Src enzyme inhibition, Z-LYTE FRET. Type of series: biochemical. How it is done: as §1
c-Src, sequence (P12931 whole entry, looked up): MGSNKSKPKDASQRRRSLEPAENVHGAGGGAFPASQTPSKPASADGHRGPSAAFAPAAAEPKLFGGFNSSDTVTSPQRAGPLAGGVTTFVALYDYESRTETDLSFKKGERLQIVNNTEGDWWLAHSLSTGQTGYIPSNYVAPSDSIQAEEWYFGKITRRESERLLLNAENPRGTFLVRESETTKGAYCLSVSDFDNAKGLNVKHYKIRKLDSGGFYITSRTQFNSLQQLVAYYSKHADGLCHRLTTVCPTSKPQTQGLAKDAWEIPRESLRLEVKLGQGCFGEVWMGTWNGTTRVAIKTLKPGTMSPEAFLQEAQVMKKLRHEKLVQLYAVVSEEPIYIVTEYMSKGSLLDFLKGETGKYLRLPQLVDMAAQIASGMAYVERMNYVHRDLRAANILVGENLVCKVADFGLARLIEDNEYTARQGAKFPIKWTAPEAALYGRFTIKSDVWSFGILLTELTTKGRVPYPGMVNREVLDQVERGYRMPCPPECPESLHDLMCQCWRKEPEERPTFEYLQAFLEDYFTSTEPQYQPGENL
The inhibitory activities of compounds of the invention against c-Src and Syk enzymes (Invitrogen), are evaluated in a similar fashion to that described hereinabove. The relevant enzyme (3000 ng/mL or 2000 ng/mL respectively, 2.5 μL) is incubated with the test compound (either 1 μg/mL, 0.1 μg/mL, 0.01 μg/mL, or 0.001 μg/mL, 2.5 μL each) for 2 hr at RT. The FRET peptides (8 μM. 2.5 μL), and appropriate ATP solutions (2.5 μL, 800 μM for c-Src, and 60 μM ATP for Syk) are then added to the enzymes/compound mixtures and the mixture incubated for 1 hr. Development reagent (protease, 5 μL) is added for 1 hr prior to detection in a fluorescence microplate reader (Varioskan® Flash, ThermoFisher Scientific).
as §2

The target in series [1] is human ether a go-go (hERG) channel (Homo sapiens (Human), UniProt Q12809). Kind of series: hERG inhibition, IonWorks patch clamp electrophysiology. Type of series: cell-based. The following applies: IonWorks patch clamp. As for the experimental part: (§3) Compounds of the invention were tested for inhibition of the human ether a go-go (hERG) channel using IonWorks™ patch clamp electrophysiology at Essen Bioscience (Welwyn Garden City, England).
human ether a go-go (hERG) channel, sequence (Q12809 whole entry): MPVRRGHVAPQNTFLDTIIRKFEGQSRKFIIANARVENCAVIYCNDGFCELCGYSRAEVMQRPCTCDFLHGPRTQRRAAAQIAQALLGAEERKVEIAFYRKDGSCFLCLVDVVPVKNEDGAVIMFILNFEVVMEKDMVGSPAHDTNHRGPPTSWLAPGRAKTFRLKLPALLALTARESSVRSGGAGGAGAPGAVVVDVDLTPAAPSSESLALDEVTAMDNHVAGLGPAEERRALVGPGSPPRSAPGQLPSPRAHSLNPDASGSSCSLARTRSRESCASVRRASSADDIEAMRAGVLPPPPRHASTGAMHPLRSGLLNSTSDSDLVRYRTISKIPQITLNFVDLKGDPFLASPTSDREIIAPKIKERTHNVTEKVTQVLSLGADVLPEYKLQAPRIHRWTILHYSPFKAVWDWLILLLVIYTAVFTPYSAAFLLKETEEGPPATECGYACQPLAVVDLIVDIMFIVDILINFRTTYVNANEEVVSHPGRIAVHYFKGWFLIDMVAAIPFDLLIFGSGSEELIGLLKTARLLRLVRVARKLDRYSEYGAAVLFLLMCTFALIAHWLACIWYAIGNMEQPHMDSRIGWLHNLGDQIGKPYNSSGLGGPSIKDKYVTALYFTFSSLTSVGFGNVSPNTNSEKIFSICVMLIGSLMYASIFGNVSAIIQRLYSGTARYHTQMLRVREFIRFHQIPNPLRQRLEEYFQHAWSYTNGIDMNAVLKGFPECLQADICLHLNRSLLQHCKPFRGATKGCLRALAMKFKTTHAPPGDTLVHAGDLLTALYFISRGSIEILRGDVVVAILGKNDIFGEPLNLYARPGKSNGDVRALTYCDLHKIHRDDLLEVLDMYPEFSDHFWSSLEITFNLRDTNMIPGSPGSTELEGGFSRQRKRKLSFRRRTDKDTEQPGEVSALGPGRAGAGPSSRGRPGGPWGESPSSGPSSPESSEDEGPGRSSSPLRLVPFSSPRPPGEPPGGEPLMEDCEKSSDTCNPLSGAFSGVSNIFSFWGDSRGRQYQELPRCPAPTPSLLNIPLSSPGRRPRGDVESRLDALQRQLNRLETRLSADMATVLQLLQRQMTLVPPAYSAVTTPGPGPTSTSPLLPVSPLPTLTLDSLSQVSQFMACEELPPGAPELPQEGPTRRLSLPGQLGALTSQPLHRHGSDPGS
(In general: Block of hERG is tested as a sign of cardiac risk.)

The next series deals with hERG (Homo sapiens (Human), UniProt Q12809). Described as above. The format is cell-based. The following applies: human, hERG, read-out: % Inhibition at Top Concentration. As for the experimental part: as §3
hERG, sequence (Q12809 whole entry): as above
In the next series the target is p38 MAPKα (Homo sapiens (Human), UniProt Q16539). Kind of series: KINOMEscan dissociation constant, p38 MAPKα. Type of series: binding. An excerpt:
(§4) These assays may be conducted by DiscoverX (formerly Ambit; San Diego, Calif.).

For the next series, the target named is Syk (Homo sapiens (Human), UniProt P43405). Kind of series: KINOMEscan dissociation constant, Syk. Type of series: binding.
Description: as §4

The target in a further series is GSK 3α (Homo sapiens (Human), UniProt P49840). The series is described as follows: GSK 3α enzyme inhibition (Method 2), Z-LYTE FRET. Type of series: biochemical. The following applies: read-out: IC50 Values for Enzyme Inhibition GSK3α. In outline: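 Z-LYTE format: the protease cleaves only non-phosphorylated peptide, and the donor/acceptor (coumarin/fluorescein) ratio reports phosphorylation after a 1 hr kinase reaction with peptide (8 μM stock) and ATP (40 μM stock).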
GSK 3α, sequence (P49840 whole entry): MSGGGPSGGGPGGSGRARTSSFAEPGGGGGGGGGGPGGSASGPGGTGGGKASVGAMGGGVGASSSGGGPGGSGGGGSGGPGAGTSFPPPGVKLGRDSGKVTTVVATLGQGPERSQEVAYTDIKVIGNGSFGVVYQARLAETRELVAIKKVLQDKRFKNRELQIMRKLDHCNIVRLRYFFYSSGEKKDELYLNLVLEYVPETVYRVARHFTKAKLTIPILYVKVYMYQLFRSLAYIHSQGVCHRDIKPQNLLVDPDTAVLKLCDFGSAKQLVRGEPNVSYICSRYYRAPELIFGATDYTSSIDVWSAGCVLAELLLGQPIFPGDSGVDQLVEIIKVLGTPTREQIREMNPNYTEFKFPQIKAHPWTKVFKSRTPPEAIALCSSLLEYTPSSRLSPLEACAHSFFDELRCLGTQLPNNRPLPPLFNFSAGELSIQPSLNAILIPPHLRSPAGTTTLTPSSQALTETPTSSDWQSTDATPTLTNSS

A further series has as its target Lck (Homo sapiens (Human), UniProt P06239). The series is described as follows: KINOMEscan dissociation constant, Lck. The format is binding.
Description: as §4

Another series deals with B-Raf (Homo sapiens (Human), UniProt P15056). Kind of series: KINOMEscan binding of B-Raf to its standard ligand.
B-Raf, sequence (P15056 whole entry): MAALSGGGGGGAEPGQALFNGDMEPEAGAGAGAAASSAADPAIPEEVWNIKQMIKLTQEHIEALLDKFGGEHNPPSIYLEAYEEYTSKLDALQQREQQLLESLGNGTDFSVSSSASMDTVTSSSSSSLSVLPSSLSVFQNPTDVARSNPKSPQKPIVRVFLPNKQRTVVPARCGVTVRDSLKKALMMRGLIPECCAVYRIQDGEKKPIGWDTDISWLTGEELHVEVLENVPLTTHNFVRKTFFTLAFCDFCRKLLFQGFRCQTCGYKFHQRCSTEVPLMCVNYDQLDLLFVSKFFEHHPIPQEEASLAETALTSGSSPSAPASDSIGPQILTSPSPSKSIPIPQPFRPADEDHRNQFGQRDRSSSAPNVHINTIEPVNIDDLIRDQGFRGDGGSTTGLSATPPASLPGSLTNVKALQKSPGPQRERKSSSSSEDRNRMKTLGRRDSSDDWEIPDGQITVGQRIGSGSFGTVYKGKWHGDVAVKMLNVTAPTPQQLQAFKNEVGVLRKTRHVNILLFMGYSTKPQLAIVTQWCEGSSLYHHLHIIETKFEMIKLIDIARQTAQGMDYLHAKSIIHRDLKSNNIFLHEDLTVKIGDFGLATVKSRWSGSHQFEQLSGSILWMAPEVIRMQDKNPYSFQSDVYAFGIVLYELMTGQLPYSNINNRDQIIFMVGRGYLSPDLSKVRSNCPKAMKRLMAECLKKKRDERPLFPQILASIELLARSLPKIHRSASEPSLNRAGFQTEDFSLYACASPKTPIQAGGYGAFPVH
Description: as §4

Series [2] in a line: Pharmacokinetics and total colon distribution after single oral administration. The format is in vivo, male C57BL/6 mice. As to conditions: male, C57BL/6, mouse, mice, oral 5 mg/kg. As for the experimental part: Studies were conducted by Sai Life Sciences (Hinjewadi, Pune, India) to investigate the systemic pharmacokinetics and total colon tissue distribution of compounds of the invention. In particular, pharmacokinetic studies were carried out in male C57BL/6 mice following a single oral administration of the compound.

Series [3] has as its system Escherichia coli, WP2 uvrA. The series is described as follows: Bacterial reverse mutation screen, Escherichia coli.
A further series addresses B-Raf (V600E) (Homo sapiens (Human), UniProt P15056, V600E). Kind of series: KINOMEscan binding of B-Raf (V600E) to its standard ligand.
Description: as §4

In series [4] the test system is Salmonella typhimurium, strains TA1535, TA1537, TA98 and TA100. The series is described as follows: Bacterial reverse mutation screen, Salmonella typhimurium.
Where [5] appears, read: plasma, measured cpd = dosed cpd (1 as Na salt, 44 as NH4+ salt), read-out: Mean plasma concentration.
Where [6] appears, read: total colon tissue, measured cpd = dosed cpd (1, 19, 47 as Na salt, 44 as NH4+ salt), read-out: total colon level.
[7] abbreviates: total colon, measured cpd = dosed cpd (1, 19, 47 as Na salt, 44 as NH4+ salt), read-out: total colon level.

Each structure is given as a SMILES string. pIC50, pKd: −log10 of the molar value. Where two headings read alike, the source gives them in different places.

Lck, sequence (P06239 whole entry): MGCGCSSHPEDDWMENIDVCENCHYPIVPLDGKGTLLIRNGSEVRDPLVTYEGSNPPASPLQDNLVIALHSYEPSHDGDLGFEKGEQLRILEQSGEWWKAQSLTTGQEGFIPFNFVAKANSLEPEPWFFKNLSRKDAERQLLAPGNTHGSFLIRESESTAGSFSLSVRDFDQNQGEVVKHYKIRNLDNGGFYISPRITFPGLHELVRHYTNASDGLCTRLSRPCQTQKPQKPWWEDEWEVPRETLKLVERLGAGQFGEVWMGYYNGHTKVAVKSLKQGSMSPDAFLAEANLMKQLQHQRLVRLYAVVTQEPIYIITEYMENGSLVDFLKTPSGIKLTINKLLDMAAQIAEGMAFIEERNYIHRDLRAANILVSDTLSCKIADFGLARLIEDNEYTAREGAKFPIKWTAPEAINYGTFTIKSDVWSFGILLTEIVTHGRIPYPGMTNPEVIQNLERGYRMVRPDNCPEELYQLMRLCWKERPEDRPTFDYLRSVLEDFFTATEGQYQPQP
p38 MAPKα, sequence (Q16539 whole entry): as the sequence (Q16539 whole entry) above
B-Raf (V600E), sequence (P15056 whole entry V600E): as the sequence (P15056 whole entry) above, with V600E counted along it

The pIC50 is −log10 of the IC50, conventionally taken in molar units. Regarding `COc1c(NC(=O)Nc2ccc(Oc3ccnc(Nc4ccc(C(=O)NCCN5CCOCC5)cc4)c3)c3ccccc23)cc(C(C)(C)C)cc1NS(C)(=O)=O` [17(u), 4-[[4-[[4-[[5-tert-butyl-3-(methanesulfonamido)-2-methoxy-phenyl]carbamoylamino]-1-naphthyl]oxy]-2-pyridyl]amino]-N-(2-morpholinoethyl)benzamide], the pIC50 was 7.18 at p38 MAPKα (MAPK14) and 7.49 against c-Src.
What is called pKd is −log10 of the Kd, conventionally taken in molar units. Lower therefore signals a high Kd. For the compound `COc1cc(Nc2cc(Oc3ccc(NC(=O)Nc4cc(C(C)(C)C)cc(NS(C)(=O)=O)c4OC)c4ccccc34)ccn2)ccc1C(=O)NCCN1CCOCC1` [Example 2, 4-((4-((4-(3-(5-(tert-Butyl)-2-methoxy-3-(methylsulfonamido)phenyl)ureido)naphthalen-1-yl)oxy)pyridin-2-yl)amino)-2-methoxy-N-(2-morpholinoethyl)benzamide], the pIC50 in series [1] was below 5.48; at GSK 3α it was 5.64. Moreover, the inhibition at 3 µM on hERG (3 μM) was -2%. In addition, the pKd at p38 MAPKα was 7.64; at Syk, 7.74; at Lck, 8.24.
As for `COc1cc(Nc2cc(Oc3ccc(NC(=O)Nc4cc(C(C)(C)C)cc(NS(C)(=O)=O)c4OC)c4ccccc34)ccn2)ccc1P(C)(=O)O` [Example 44, (4-((4-((4-(3-(5-(tert-Butyl)-2-methoxy-3-(methylsulfonamido)phenyl)ureido)naphthalen-1-yl)oxy)pyridin-2-yl)amino)-2-methoxyphenyl)(methyl)phosphinic acid], the “effect on the binding of B-Raf to its standard ligand” value on B-Raf is “did not have any significant effect”. Besides, the pIC50 in [1] was below 4.96. Moreover, at hERG (11 μM), the inhibition at 11 µM is 18%. The concentration at 0.5 h in series [2] (setting [5]) turned out to be 0 ng/mL; in series [2] (setting [7]) it was 0 ng/g. Further, the figures for the concentration at 1 h in series [2] (setting [5]) and in [2] (setting [7]) were 0 ng/mL and 0 ng/g, respectively. Besides, the concentration at 2 h worked out at 0 ng/mL in series [2] (setting [5]) and 2330 ng/g in series [2] (setting [6]). Also, the results for the concentration at 4 h in [2] (setting [5]) and in series [2] (setting [6]) were 0 ng/mL and 1750 ng/g, respectively. The concentration at 6 h in series [2] (setting [5]) was found to be 0 ng/mL; in series [2] (setting [6]) it was 450 ng/g. Also, the concentration at 8 h in [2] (setting [5]) turned out to be 0 ng/mL; in series [2] (setting [6]), 915 ng/g. Further, the concentration at 12 h in series [2] (setting [5]) was 0 ng/mL; in series [2] (setting [6]), 180 ng/g. Moreover, the concentration at 24 h in series [2] (setting [5]) stood at 0 ng/mL; in [2] (setting [7]), 0 ng/g. Moreover, the negative-log Kd (pKd) on p38 MAPKα was 8.72; on Syk, 8.18; at Lck, 8.28. Further, the “dose with reduction in the mean colony count (toxicity to the bacteria)” value in series [3] (absence of S-9 mix) came out at 5000 μg/plate; in series [4] (TA98, presence of S-9 mix), 5000 μg/plate; in series [4] (TA100, presence of S-9 mix) it was 5000 μg/plate; in series [4] (TA1535, presence of S-9 mix), 5000 μg/plate; in [4] (TA1537, presence of S-9 mix), 5000 μg/plate. The “mutagenic effects (revertant numbers)” value in [3] (presence or absence of S-9 mix, plate incorporation) is on record as “absence of any mutagenic effects”; in series [4] (TA1535, TA1537, TA98, TA100, presence or absence of S-9 mix, plate incorporation) it was “absence of any mutagenic effects”. In addition, the “effect on the binding of B-Raf (V600E) to its standard ligand” value at B-Raf (V600E) is on record as “did not have any significant effect”. Besides, the “limit of solubility in the mutation test” value in series [4] (all strains, presence and absence of S-9 mix, plate incorporation) is listed as 5000 μg/plate.
